According to patent US7417124B2, “Antibodies specific for phosphorylation sites and screening methods using the same antibodies” (Zeria Pharmaceutical Co., Ltd., priority 2003, dated 2008):

Test system: phosphorylation in the linker regions of Smad proteins
Assay: Smad linker region phosphorylation in TGF-β-treated myofibroblasts, immunoprecipitation and immunoblotting with phosphorylation-specific antibodies
Assay type: cell-based
Conditions: myofibroblasts from rat liver, compounds 30 minutes before 200 pM TGF-β, FIG. 3
Experimental: The phosphorylation of Smad2 and Smad3 was examined by western blotting using antibodies against Smad2 and Smad3 which were site-specifically phosphorylated after the immunoprecipitation with anti-Smad2 antibody and anti-Smad3 antibody.
Myofibroblasts (MFB 2×10^6 cells/100 mm dish) from rat liver were cultured in DMEM medium (containing 5% fetal bovine serum) for several days and further cultured with 200 pM TGF-β (R&D Systems) for 30 minutes under the serum-free conditions. The cells were homogenized with RIPA buffer (10 mM Tris-HCl, pH 7.8/1% NP40/0.15M NaCl/1 mM EDTA/10 μg/ml aprotinin), and the resultant lysate was centrifuged at 15,000×g. The supernatant was incubated with Smad-specific antibodies and protein G-sepharose (Amersham Bioscience) to obtain immunoprecipitate. After the incubation, part of the precipitate was subjected to SDS-polyacrylamide gel electrophoresis, the obtained gel was transferred onto a PVDF membrane, and immunoblotting was performed using the antibodies specific for phosphorylation of the linker regions and C-terminal regions in Smad2 and Smad3. The detection was carried out by a chemiluminescence technique using HRP-labeled secondary antibody/anti-IgG, IgH antibody (Amersham Bioscience). […] The detected bands were quantified using an imaging analyzer.

SMILES: C[S+]([O-])c1ccc(-c2nc(-c3ccncc3)c(-c3ccc(F)cc3)[nH]2)cc1 (stereo not shown) [SB203580]
- phosphorylation in the linker regions of Smad proteins: inhibited
